Assay results as given in US9975854B2, “Benzomorphan analogs and use thereof” (Purdue Pharma L.P., priority 2014, dated 2018).
Like-named read-outs stand apart in the source and are kept apart here.

Target: μ-opioid receptor (Homo sapiens (Human), UniProt P35372)
Assay: μ-opioid receptor [35S]GTPγS functional assay, HEK-293 or CHO cells
Assay type: biochemical
Conditions: for Emax: relative to DAMGO
Protocol: [^35S]GTPγS functional assays were conducted using freshly thawed μ-receptor membranes prepared in-house from a cell line expressing recombinant opioid receptor in a HEK-293, CHO or U-2 OS cell background, or purchased from a commercial source (Perkin Elmer, Shelton, Conn.; or DiscovRx, Fremont, Calif.). Assay reactions were prepared by sequentially adding the following reagents to binding buffer (100 mM NaCl, 10 mM MgCl2, 20 mM HEPES, pH 7.4) on ice (final concentrations indicated): membrane protein (0.026 mg/mL), saponin ([…]), GDP ([…]) and [^35S]GTPγS (0.20 nM; Perkin Elmer, Shelton, Conn.). The prepared membrane solution (190 μl/well) was transferred to 96-shallow well polypropylene plates containing 10 μl of 20× concentrated stock solutions of the agonist [D-Ala^2, N-methyl-Phe^4 Gly-ol^5]-enkephalin (DAMGO) prepared in dimethyl sulfoxide (DMSO). Plates were incubated for 30 min at about 25° C. with shaking. Reactions were terminated by rapid filtration onto 96-well Unifilter GF/B filter plates (Perkin Elmer, Shelton, Conn.) using a 96-well tissue harvester (Perkin Elmer, Shelton, Conn.) followed by three filtration washes with 200 μl of ice-cold wash buffer (10 mM NaH2PO4, 10 mM Na2HPO4, pH 7.4). Filter plates were subsequently dried at 50° C. for 2-3 hr. BetaScint scintillation cocktail (Perkin Elmer, Shelton, Conn.) was added (50 μl/well) and plates were counted using a Packard Top-Count for 1 min/well. Data were analyzed using the sigmoidal dose-response curve fitting functions in GraphPad PRISM v. 3.0, or an in-house function for non-linear, sigmoidal dose-response curve-fitting.
μ GTP EC50 is the concentration of a compound providing 50% of the maximal response for the compound at a μ-opioid receptor.
μ GTP Emax (%) is the maximal effect elicited by a compound relative to the effect elicited by DAMGO, a standard p agonist. Generally, the μ GTP Emax (%) value measures the efficacy of a compound to treat or prevent pain or other Conditions.
In TABLE 4, activity response of certain Compounds of the Invention to the μ- and κ-opioid receptors was determined as described above for functional assays using HEK-293 or CHO cells.

[1] = HEK-293 or CHO cells, read-out: GTPγS μ EC50
[2] = HEK-293 or CHO cells, bound given in uM, read-out: GTPγS μ EC50

Molecule `CN1CC[C@@]2(C)c3cc(O)ccc3C[C@@H]1[C@H]2NCC1(O)CCCCC1` [Compound 13, (2R,6S,11S)-11-(((1-hydroxycyclohexyl)methyl)amino)-3,6-dimethyl-1,2,3,4,5,6-hexahydro-2,6-methano-benzo[d]azocin-8-ol] has an EC50 [1] of 1.07 ± 0.172 µM and an Emax (HEK-293 or CHO cells) of 45.7 ± 1.76%.

For `CCN(C(=O)Nc1ccc(C#N)cc1)[C@@H]1[C@H]2Cc3ccc(O)cc3[C@]1(C)CCN2C` [Compound 93, 3-(4-cyanophenyl)-1-ethyl-1-((2R,6S,11 S)-8-hydroxy-3,6-dimethyl-1,2,3,4,5,6-hexahydro-2,6-methanobenzo[d]azocin-11-yl)urea], the EC50 [1] was 2.29 ± 0.404 µM and the Emax (HEK-293 or CHO cells) was 32 ± 2.48%.

In the case of `CN1CCC2(C)c3cc(O)ccc3C[C@@H]1C2NS(=O)(=O)c1ccccc1` (stereo in doubt) [Compound 102, N-((2R,6S,11S)-8-hydroxy-3,6-dimethyl-1,2,3,4,5,6-hexahydro-2,6-methanobenzo[d]azocin-11-yl)benzenesulfonamide], the EC50 [2] is reported as > 20 µM and the Emax (HEK-293 or CHO cells) is reported as -1%.

Molecule `CCN(C(=O)Nc1ccc(C#N)cc1)[C@H]1[C@H]2Cc3ccc(O)cc3[C@]1(C)CCN2C` [Compound 91, 3-(4-cyanophenyl)-1-ethyl-1-((2R,6S,11R)-8-hydroxy-3,6-dimethyl-1,2,3,4,5,6-hexahydro-2,6-methanobenzo[d]azocin-11-yl)urea] has an EC50 [1] of 0.0463 ± 0.0041 µM and an Emax (HEK-293 or CHO cells) of 75.3 ± 2.19%.

`CN1CC[C@@]2(C)c3cc(O)ccc3C[C@@H]1[C@@H]2N(C)C(=O)Nc1nc2ccc(F)cc2s1` [Compound 81, 3-(6-fluorobenzo[d]thiazol-2-yl)-1-((2R,6S,11R)-8-hydroxy-3,6-dimethyl-1,2,3,4,5,6-hexahydro-2,6-methanobenzo[d]azocin-11-yl)-1-methylurea] was tested, and the EC50 [2] was > 20 µM and the Emax (HEK-293 or CHO cells) was -1%.

Molecule `CN1CC[C@@]2(C)c3cc(C(N)=O)ccc3C[C@@H]1[C@@H]2NCCc1ccccc1` [Compound 114, (2R,6S,11R)-3,6-dimethyl-11-(phenethylamino)-1,2,3,4,5,6-hexahydro-2,6-methanobenzo[d]azocine-8-carboxamide] has an EC50 [1] of 8.62 ± 0.751 µM and an Emax (HEK-293 or CHO cells) of 71 ± 2.18%.

Work on `CN1CC[C@@]2(C)c3cc(O)ccc3C[C@@H]1[C@H]2N(CCc1ccc(F)cc1)CC(=O)O` [Compound 72, N-(4-fluorophenethyl)-N-((2R,6S,11S)-8-hydroxy-3,6-dimethyl-1,2,3,4,5,6-hexahydro-2,6-methanobenzo[d]azocin-11-yl)glycine] yielded an EC50 [1] of 0.338 ± 0.0609 µM and an Emax (HEK-293 or CHO cells) of 101 ± 2.91%.

`CN1CC[C@@]2(C)c3cc(O)ccc3C[C@@H]1[C@H]2NCCCc1ccccc1` [Compound 109, (2R,6S,11S)-3,6-dimethyl-11-((3-phenylpropyl)amino)-1,2,3,4,5,6-hexahydro-2,6-methanobenzo-[d]azocin-8-ol] gave an EC50 [1] of 0.649 ± 0.114 µM and an Emax (HEK-293 or CHO cells) of 59.6 ± 2.5%.

For `CCn1c(NC(=O)N(C)[C@H]2[C@H]3Cc4ccc(OC)cc4[C@]2(C)CCN3C)nc2ccccc21` [Compound 110, 3-(1-Ethyl-1H-benzo[d]imidazol-2-yl)-1-((2R,6S,11R)-8-methoxy-3,6-dimethyl-1,2,3,4,5,6-hexahydro-2,6-methanobenzo[d]azocin-11-yl)-1-methylurea], the EC50 [1] was 0.851 ± 0.161 µM and the Emax (HEK-293 or CHO cells) was 89.2 ± 6.05%.

`CN1CC[C@@]2(C)c3cc(C(=O)O)ccc3C[C@@H]1[C@@H]2NCCc1ccc(S(C)(=O)=O)cc1` [Compound 126, (2R,6S,11R)-3,6-dimethyl-11-((4-(methylsulfonyl)phenethyl)amino)-1,2,3,4,5,6-hexahydro-2,6-methanobenzo[d]azocine-8-carboxylic acid] was tested, and the EC50 [2] was > 20 µM and the Emax (HEK-293 or CHO cells) was 18.4 ± 0.3%.

With `CN1CC[C@@]2(C)c3cc(O)ccc3C[C@@H]1[C@@H]2NC(=O)Cc1ccc(S(C)(=O)=O)cc1` [Compound 33, N-((2R,6S,11R)-8-hydroxy-3,6-dimethyl-1,2,3,4,5,6-hexahydro-2,6-methanobenzo[d]azocin-11-yl)-2-(4-(methylsulfonyl)phenyl)acetamide] the EC50 [1] was 5.28 ± 1.26 µM and the Emax (HEK-293 or CHO cells) was 13%.

With `CN1CC[C@@]2(C)c3cc(O)ccc3C[C@@H]1[C@@H]2N(CCc1ccc(F)cc1)CC(=O)O` [Compound 73, N-(4-fluorophenethyl)-N-((2R,6S,11R)-8-hydroxy-3,6-dimethyl-1,2,3,4,5,6-hexahydro-2,6-methanobenzo[d]azocin-11-yl)glycine] the EC50 [1] was 0.0572 ± 0.0127 µM and the Emax (HEK-293 or CHO cells) was 68.8 ± 1.77%.

With `CN(CC1CCN(S(=O)(=O)C2CCCC2)CC1)C1[C@H]2Cc3ccc(O)cc3C1(C)CCN2C` (stereo in doubt) [Compound 60, (2R,6S,11S)-11-(((1-(cyclopentylsulfonyl)piperidin-4-yl)methyl)(methyl)amino)-3,6-dimethyl-1,2,3,4,5,6-hexahydro-2,6-methanobenzo[d]azocin-8-ol] the EC50 [1] was 0.012 ± 0.00174 µM and the Emax (HEK-293 or CHO cells) was 22.3 ± 2.34%.

For `CN1CC[C@@]2(C)c3cc(O)ccc3C[C@@H]1[C@@H]2N(C)CC1CCN(C(=O)NC(C)(C)C)CC1` [Compound 95, N-(tert-butyl)-4-((((2R,6S,11R)-8-hydroxy-3,6-dimethyl-1,2,3,4,5,6-hexahydro-2,6-methanobenzo[d]azocin-11-yl)(methyl)amino)methyl)piperidine-1-carboxamide], the EC50 [1] was 0.008 ± 0.00164 µM and the Emax (HEK-293 or CHO cells) was 17.7 ± 2.6%.

`CN1CC[C@@]2(C)c3cc(O)ccc3C[C@@H]1[C@@H]2NCC1(O)CCCCC1` [Compound 14, (2R,6S,11R)-11-(((1-hydroxycyclohexyl)methyl)amino)-3,6-dimethyl-1,2,3,4,5,6-hexahydro-2,6-methanobenzo[d]azocin-8-ol] showed an EC50 [1] of 8.69 ± 2.27 µM and an Emax (HEK-293 or CHO cells) of 15 ± 1.58%.

`CN1CC[C@@]2(C)c3cc(C#N)ccc3C[C@@H]1C2(O)O` [Compound 116, (2R,6S)-11,11-dihydroxy-3,6-dimethyl-1,2,3,4,5,6-hexahydro-2,6-methanobenzo[d]azocine-8-carbonitrile] was tested, and the EC50 was > 20 µM and the Emax (HEK-293 or CHO cells) was 0%.

For `CN1CC[C@@]2(C)c3cc(O)ccc3C[C@@H]1[C@H]2N(C)C(=O)Nc1nc2cc(F)ccc2s1` [Compound 82, 3-(5-fluorobenzo[d]thiazol-2-yl)-1-((2R,6S,11S)-8-hydroxy-3,6-dimethyl-1,2,3,4,5,6-hexahydro-2,6-methanobenzo[d]azocin-11-yl)-1-methylurea], the EC50 [2] was > 20 µM and the Emax (HEK-293 or CHO cells) was 1%.

`CN1CC[C@@]2(C)c3cc(C(N)=O)ccc3C[C@@H]1[C@H]2N(C)C(=O)Nc1ccc(C#N)cc1` [Compound 120, (2R,6S,11S)-11-(3-(4-cyanophenyl)-1-methylureido)-3,6-dimethyl-1,2,3,4,5,6-hexahydro-2,6-methanobenzo[d]azocine-8-carboxamide] was tested, and the EC50 [2] was > 20 µM and the Emax (HEK-293 or CHO cells) was -0.33 ± 0.67%.

Molecule `CN1CC[C@@]2(C)c3cc(O)ccc3C[C@@H]1[C@@H]2NCCC1CCCCC1` [Compound 16, (2R,6S,11R)-11-((2-cyclohexylethyl)amino)-3,6-dimethyl-1,2,3,4,5,6-hexahydro-2,6-methanobenzo[d]azocin-8-ol] has an EC50 [1] of 1.27 ± 0.0901 µM and an Emax (HEK-293 or CHO cells) of 77.3 ± 3.84%.

With `CN1CC[C@@]2(C)c3cc(O)ccc3C[C@@H]1[C@@H]2N(C)CC1CCN(S(C)(=O)=O)CC1` [Compound 54, (2R,6S,11R)-3,6-dimethyl-11-(methyl((1-(methylsulfonyl)piperidin-4-yl)methyl)amino)-1,2,3,4,5,6-hexahydro-2,6-methanobenzo[d]azocin-8-ol] the EC50 [1] was 0.00544 ± 0.00235 µM and the Emax (HEK-293 or CHO cells) was 74 ± 3.15%.

In the case of `CN1CC[C@@]2(C)c3cc(O)ccc3C[C@@H]1[C@@H]2NC(=O)Nc1ccc(C#N)cc1` [Compound 27, 1-(4-Cyanophenyl)-3-((2R,6S,11R)-8-hydroxy-3,6-dimethyl-1,2,3,4,5,6-hexahydro-2,6-methanobenzo[d]azocin-11-yl)urea], the EC50 [2] is reported as > 20 µM and the Emax (HEK-293 or CHO cells) is reported as 0%.

For `CN1CC[C@@]2(C)c3cc(O)ccc3C[C@@H]1[C@H]2NC(=O)Nc1nc2cc(F)ccc2s1` [Compound 122, 1-(5-Fluorobenzo[d]thiazol-2-yl)-3-((2R,6S,11S)-8-hydroxy-3,6-dimethyl-1,2,3,4,5,6-hexahydro-2,6-methanobenzo[d]azocin-11-yl)urea], the EC50 [1] was 0.375 ± 0.106 µM and the Emax (HEK-293 or CHO cells) was 13.6 ± 1.14%.

Molecule `CCS(=O)(=O)N1CCC(CN(C)[C@H]2[C@H]3Cc4ccc(O)cc4[C@]2(C)CCN3C)CC1` [Compound 56, (2R,6S,11R)-11-(((1-(ethylsulfonyl)piperidin-4-yl)methyl)(methyl)amino)-3,6-dimethyl-1,2,3,4,5,6-hexahydro-2,6-methanobenzo[d]azocin-8-ol] has an EC50 [1] of 0.0967 ± 0.00987 µM and an Emax (HEK-293 or CHO cells) of 62 ± 1.53%.

In the case of `CN1CC[C@@]2(C)c3cc(C(=O)O)ccc3C[C@@H]1C2(O)O` [Compound 117, (2R,6S)-11,11-dihydroxy-3,6-dimethyl-1,2,3,4,5,6-hexahydro-2,6-methanobenzo[d]azocine-8-carboxylic acid], the EC50 [2] is reported as > 20 µM and the Emax (HEK-293 or CHO cells) is reported as 0%.
